The test system of test [1] is human pancreatic cancer cell lines (KRAS mutant and wild-type KRAS). Briefly: In vitro growth inhibition by auranofin or piperlongumine in a panel of pancreatic cancer cell lines. In kind it is cell-based. The protocol:
Relative proliferation was calculated by measuring viable cell numbers, and normalizing to the viable cell numbers of DMSO-treated cells, which were set to 1. Relative proliferation was then plotted as a function of auranofin concentration and fit to an exponential curve. L3.3, Colo357, and BXPC3 have wild-type KRAS, and rest of the cell lines harbor a KRAS mutation.
Cancer cells harboring different KRAS mutations (G12C, G12D, G12V) or wild-type allele were assayed. Relative proliferation was calculated by measuring viable cell numbers, and normalizing to the viable cell numbers of DMSO-treated cells, which were set to 1. Relative proliferation was then plotted as a function of auranofin concentration and fit to an exponential curve.
(§1) Proliferation assays. Competitive proliferation assays using shRNAs in TRMPV-Neo vector (with miR-30 or miR-E backbone) were performed as described previously (Huang et al., Genes Dev. 28(16): 1800-1814 (2014)). Assays for in vitro growth inhibition by auranofin or piperlongumine were performed by counting the viable cell numbers using CellTiter-Glo Luminescent Cell Viability Assay (Promega) after incubation of cells in the presence of increasing concentrations of auranofin or piperlongumine for 72 hr. Proliferation rates were calculated by dividing viable cell numbers at 72 hr by the viable cell numbers at 0 hr. Relative proliferation rates were calculated by normalizing to the proliferation rate of vehicle-treated cells.
Since the screening system discussed above and FIGS. 1A-3B was driven by mutant Kras, p53 loss and Myc overexpression, whether alterations in either gene could dictate sensitivity to TXNRD1 inhibition was investigated. Twelve pancreatic cancer cell lines were treated with increasing concentration of auranofin or DMSO. Among the cell lines used in this experiment L3.3, Colo357, and BXPC3 have wild-type KRAS. The cell lines PANC0327, MIAPaCa-2, PANC0213, ASPC1, 8898, CFPAC-1, L3.6pl, PANC1 and SU8686 harbored KRAS mutations.
To understand whether the observed difference between sensitivities of wild-type KRAS cells and KRAS mutant cells, was statistically significant, the IC50 data of the relative sensitivity of human PDAC cell lines to TXNRD1 inhibition by auranofin was compared. […] To understand the effect of KRAS mutations (G12C, G12D, G12V) on auranofin sensitivity, human pancreatic cancer cells harboring different KRAS mutations (G12C, G12D, G12V) or wild-type were treated with another TXNRD1 inhibitor piperlongumine.

For test [2], the system named is MIAPaCa-2 (KRAS^G12C) and PSN1 (KRAS^G12R) pancreatic cancer cell lines. Briefly: Drug combination growth inhibition and synergy analysis (CompuSyn, Combination Index). In kind it is cell-based, human. Conditions: KRAS-mutant pancreatic cancer cells MIAPaCa-2 and PSN1.
Text: Data presented as mean of three independent experiments (n=3). […] Each CI score represents data from at least three independent experiments.
CompuSyn software (Version 1.0) (http://www.combosyn.com), which is based on the Median-Effect Principle and the Combination Index-Isobologram Theorem was used to analyze drug synergism. Combination index (CI) values CI>1 indicates antagonism; CI=0.75-1.25 indicates additive effects; and <1 indicates synergism. Each GI (Growth inhibition) or CI score represents data from at least three independent experiments.
In test [3] the test system is KRas^G12D; p53^-/- pancreatic cancer organoid tumors. Briefly: In vivo drug treatment, KRas^G12D; p53^-/- pancreatic cancer organoids transplanted into the pancreas. Details: species or system mice. Conditions: 10 mg/kg, one per day, 5 days per week, intraperitoneal, 1 week, versus vehicle. On the procedure: KRas^G12D; p53^−/− organoids were transplanted in recipient mice, and the mice were treated with vehicle only or auranofin (n=3-4) for 1 week. Tumor weights were measured and plotted.
(§2) In vivo drug treatment experiments. For auranofin treatment trials, 16 mg auranofin was first solved in 4 mL ethanol, and then diluted with 12 mL PBS to a final concentration of 1 mg/ml. Mice were given daily auranofin (10 mg/kg) or a similar volume of vehicle by intraperitoneal injection. The sick animals were sacrificed and pancreatic tissues and tumors were used for further analysis.
(§3) Growth inhibitory effects of pharmacological TXNRD1 inhibition was also examined in additional murine PDAC models generated by transplanting KRas^G12D; p53^−/− pancreatic cancer organoid lines into the pancreas of recipient mice. Mice were treated either with vehicle only, acting as a negative control, or auranofin. […] Thus, TXNRD1 is required for the maintenance of KRAS-mutant tumors and dependency in vivo.

Test [4] has as its system mPDAC cells. Briefly: In vitro growth inhibition by auranofin, CellTiter-Glo viable cell numbers. In kind it is cell-based, murine. To be noted: 72 hr, increasing doses, normalized to DMSO-treated cells. The protocol:
Relative proliferation was calculated by measuring viable cell numbers, and normalizing to the viable cell numbers of DMSO-treated cells, which were set to 1. Relative proliferation was then plotted as a function of auranofin concentration and fit to an exponential curve.
as §1
Auranofin is an inhibitor of enzymatic activity of TXNRD1 (See Gromer et al., J Biol Chem 273(32): 20096-20101). Myricetin, manumycin A and protoporphyrin IX are also inhibitors of enzymatic activity of TXNRD1. mPDAC cells were treated with the TXNRD1 inhibitor auranofin or DMSO for 72 hr, and viability was measured. DMSO treatment served as a negative control causing a lack of growth inhibition. […]
A general note: In ATP-based viability assays light output follows the ATP content of the culture.

Test [5] deals with MIAPaCa-2 (KRAS mutant). Briefly: In vivo drug treatment, human xenograft model (KRAS mutant). Details: species or system mice. Conditions: auranofin 10 mg/kg intraperitoneal, 2 weeks, versus vehicle. The protocol: MIAPaCa-2 (KRAS mutant) or Colo357 (KRAS wild-type) organoids were transplanted into the pancreases of recipient mice. The mice were treated with vehicle only or auranofin (n=5) for 2 weeks. Tumor weights were measured and plotted.
as §2, §3
A general note: A xenograft is tissue or cells of one species grown in another, often human tumour cells in immunodeficient mice.

The record followed here is US12697349B2, “Compositions and methods for treating RAS-mutant cancers” (MEMORIAL SLOAN KETTERING CANCER CENTER, priority 2019, dated 2026).

`COc1cc(/C=C/C(=O)N2CCC=CC2=O)cc(OC)c1OC` [piperlongumine]: the “sensitivity to piperlongumine, KRAS mutant versus wild-type KRAS cells” value in test [1] (cells with KRAS G12C, G12D, G12V or wild-type, 72 hours) was “KRAS mutant cells were more sensitive to piperlongumine than the wild-type KRAS cells”.
Consider `CC(=O)OC[C@H]1O[C@@H]([S-])[C@H](OC(C)=O)[C@@H](OC(C)=O)[C@@H]1OC(C)=O.CCP(CC)CC.[Au+]` [auranofin], for which the antiproliferative effect result in test [2] is on record as “antiproliferative effects”. In addition, the “tumor growth (tumor weights)” value in test [3] is on record as “triggered a delay in Kras-mutant tumor growth”. In addition, the “growth inhibition of mPDAC cells (relative proliferation)” value in test [4] was “inhibited growth of mPDAC cells at submicromolar concentration”. Further, the “correlation of anti-proliferative response (IC50) with KRAS mutational status” value in test [1] (human PDAC cell lines, n=12) is reported as “significant correlation”. Besides, the “correlation of response (IC50) with p53 mutational status or MYC mRNA expression” value in test [1] (human pancreatic cancer cell lines, n=9) was “no significant correlation”. In test [1] (twelve pancreatic cancer cell lines, 72 hours, increasing concentration), the “sensitivity to auranofin, KRAS mutant versus wild-type KRAS cells” value is recorded as “KRAS mutant cells were generally more sensitive to auranofin than the wild-type KRAS cells”. For the same compound, the “tumor growth inhibition (tumor weights)” value in test [5] is listed as “growth inhibitory effects of pharmacological TXNRD1 inhibition was found”.
